# ± gives the expanded uncertainty stated by the source.
# Tests used:
# [1] = Molar enthalpy of transition or fusion; conditions: Crystal; DSC
# [2] = Crystal; for mass density: 298.15 K, 101.33 kPa, mass and volume of pellet; for Normal melting temperature: DTA
Molar enthalpy of transition or fusion [1] [kJ/mol],mass density [2] [kg/m3],Normal melting temperature [2] [°C],SMILES
18.3 ± 0.47,1140 ± 10,82.73 ± 0.39,"O=C1Cc2ccccc2CO1 [1,4-dihydro-3H-2-benzopyran-3-one]"
16.7 ± 0.54,1140 ± 10,39.13 ± 0.39,"O=C1CCOc2ccccc21 [2,3-dihydro-4H-1-benzopyran-4-one]"
